Data published in PubChem BioAssay (NCI).
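Exposure lasted 48 hours, with cells grown in 96-well plates and compounds tested at five concentrations. The concentration for full growth arrest is given as TGI.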 Where a SMILES comes first, the peptide text is derived from it. The star is where a group is joined. Cbz = O=C(OCc1ccccc1)*

Legend:
Experiment in all cases: DTP human tumour cell line panel, 48 h
HS 578T breast = test system: HS 578T breast
HT29 colon = test system: HT29 colon
M14 melanoma = test system: M14 melanoma
MDA-MB-231 breast = test system: MDA-MB-231 breast
NCI-H226 lung = test system: NCI-H226 lung
OVCAR-4 ovarian = test system: OVCAR-4 ovarian
SF-268 CNS = test system: SF-268 CNS
SK-MEL-5 melanoma = test system: SK-MEL-5 melanoma
SNB-19 CNS = test system: SNB-19 CNS
TK-10 renal = test system: TK-10 renal
UACC-257 melanoma = test system: UACC-257 melanoma

| SMILES | TGI (HS 578T breast) [µM] | TGI (HT29 colon) [µM] | TGI (M14 melanoma) [µM] | TGI (MDA-MB-231 breast) [µM] | TGI (NCI-H226 lung) [µM] | TGI (OVCAR-4 ovarian) [µM] | TGI (SF-268 CNS) [µM] | TGI (SK-MEL-5 melanoma) [µM] | TGI (SNB-19 CNS) [µM] | TGI (TK-10 renal) [µM] | TGI (UACC-257 melanoma) [µM] |
| --- | --- | --- | --- | --- | --- | --- | --- | --- | --- | --- | --- |
| CC1CCC(=O)C(C(=O)CC2CC(=O)N(C)C(=O)C2)C1 (configuration not stated) | > 100 | > 100 | > 100 | > 100 | > 100 | > 100 | > 100 | > 100 | > 100 | > 100 | > 100 |
| CC(CO)(CO)N1C(=O)C2C3C=CC(C3)C2C1=O (configuration not stated) | > 100 | > 100 | > 100 | > 100 | > 100 | > 100 | > 100 | > 100 | > 100 | > 100 | > 100 |
| O=C(O)C(NCc1ccccc1)C(NCc1ccccc1)C(=O)O (configuration not stated) | > 100 | > 100 | > 100 | > 100 | > 100 | > 100 | > 100 | > 100 | > 100 | > 100 | > 100 |
| NC(=O)C(C(N)=O)=C(O)C(=O)/C=C(\O)c1ccccc1 | > 100 | > 100 | > 100 | > 100 | > 100 | > 100 | > 100 | > 100 | > 100 | > 100 | > 100 |
| CC(=O)Oc1ccc2c(C)cc(=O)oc2c1OC(C)=O | 99.5 | > 100 | > 100 | > 100 | > 100 | > 100 | > 100 | > 100 | > 100 | 84.9 | > 100 |
| Cc1nc2c(nc1C)-c1[nH]c3c(c1C(=O)C2=O)CCCC3=O | > 59.2 | 16.2 | 3.4 | 3.4 | 3.04 | 3.04 | 2.9 | 3.02 | 5.58 | 34.8 | 4.83 |
| CCOC1OC(=O)c2cc3ccc4c(c3c(-c3ccc5c(c3)OCO5)c21)OCO4 (configuration not stated) | > 39.6 | > 100 | 79.3 | > 100 | > 74 | > 100 | > 100 | 27 | > 100 | > 77.9 | > 84.5 |
| Cc1ccc(-n2c(N)c(C#N)c3[nH]nc(N)c3c2=O)cc1 | > 100 | > 100 | > 100 | > 100 | > 100 | > 100 | > 100 | > 100 | > 100 | > 100 | > 100 |
| Cc1nn(-c2ccccc2)c2c1C(c1ccc(Cl)cc1)NC(=S)N2 (configuration not stated) | > 100 | > 100 | > 100 | 51.2 | > 100 | > 100 | > 100 | 52.1 | > 100 | 43.6 | > 100 |
| Cc1cc2oc(=N)c(C#N)c(C)c2cc1C | > 100 | > 100 | > 100 | > 100 | > 100 | > 100 | > 100 | > 100 | > 100 | > 100 | > 100 |
| Fc1cc(-c2cc(-c3ccccc3)no2)c(Cl)cc1Cl | > 88.9 | > 46.7 | > 54.7 | 32.8 | > 23.3 | > 77.3 | > 54.2 | > 33.5 | > 62.5 | > 51.7 | > 71.6 |
| CN(C)CCCN1CCC2(CCC(C(C)(C)C)CC2)CC1 | 4.89 | 1.7 | 3.46 | 3.91 | 19.9 | 17.3 | 7.29 | 3.02 | 11.8 | 3.34 | 2.76 |
| CCOC(=O)CC[C@H](NC(=O)[C@H](N)Cc1ccc(N(CCCl)CCCl)cc1)C(=O)OCC | 52.7 | > 78 | 21.8 | > 58.8 | > 72 | > 45.2 | 19.7 | 23.5 | > 96 | > 100 | 37.9 |
| COc1ccc(C(OCC2OC(n3cc(C)c(=O)[nH]c3=O)CC2n2cc(Cn3cc(Cl)c(=O)[nH]c3=O)nn2)(c2ccccc2)c2ccccc2)cc1 (configuration not stated) | > 100 | > 100 | > 100 | > 100 | > 100 | > 100 | > 100 | > 100 | > 100 | > 100 | > 100 |
| c1ccc(CCNc2ccccn2)nc1 | > 100 | > 100 | > 100 | > 100 | > 100 | > 100 | > 100 | > 100 | > 100 | > 100 | > 100 |
| O=c1[nH]nc(Cc2ccccc2)n1/N=C/c1ccccc1O | > 100 | > 100 | > 100 | > 100 | > 100 | > 100 | > 100 | > 100 | > 100 | > 100 | > 100 |
| CCOC(=O)CN1C(=O)c2ccc(NC(=O)C(=O)O)cc2S1(=O)=O | > 100 | > 100 | > 100 | > 100 | > 100 | > 100 | > 100 | > 100 | > 100 | > 100 | > 100 |
| CC1OC(OC2C(O)COC(OC3C(C)OC(OC4C(OC(=O)[C@]56CCC(C)(C)C[C@@H]5C5=CCC7[C@@]8(C)C[C@H](O)[C@H](OC9OC(CO)C(O)C(O)C9O)[C@@](C)(CO)[C@@H]8CC[C@@]7(C)[C@]5(C)CC6)OCC(O)C4O)C(O)C3OC3OCC(O)(CO)C3O)C2O)C(O)C(O)C1O (some centres not stated) | 35.8 | 37.4 | 10.4 | 30 | 43 | 37.2 | 28.4 | 29.8 | 29 | 32.1 | 28.5 |
| O=Cc1[nH]c(=O)[nH]c(=O)c1C(=O)O | > 100 | > 100 | > 100 | > 100 | > 100 | > 100 | > 100 | > 100 | > 100 | > 100 | > 100 |

| SMILES | TGI (HS 578T breast) [µM] | TGI (HT29 colon) [µM] | TGI (M14 melanoma) [µM] | TGI (MDA-MB-231 breast) [µM] | TGI (NCI-H226 lung) [µM] | TGI (OVCAR-4 ovarian) [µM] | TGI (SF-268 CNS) [µM] | TGI (SK-MEL-5 melanoma) [µM] | TGI (SNB-19 CNS) [µM] | TGI (TK-10 renal) [µM] | TGI (UACC-257 melanoma) [µM] |
| --- | --- | --- | --- | --- | --- | --- | --- | --- | --- | --- | --- |
| N#Cc1c(-c2ccc(Cl)cc2Cl)nc2[nH][nH]c(=S)n2c1=O | > 100 | > 100 | > 100 | > 100 | > 100 | > 100 | > 100 | > 100 | > 100 | > 100 | > 100 |
| Cn1c(=O)c2c(nc(Cc3ccccc3)n2CC(=O)O)n(C)c1=O | > 100 | > 100 | > 100 | > 100 | > 100 | > 100 | > 100 | > 100 | > 100 | > 100 | > 100 |
| C[C@H](CCC(=O)O)[C@H]1CC[C@H]2[C@@H]3CC[C@@H]4C[C@H](O)CC[C@]4(C)[C@H]3C[C@H](O)[C@]12C | > 100 | > 100 | > 100 | > 100 | > 100 | > 100 | > 100 | > 100 | > 100 | > 100 | > 100 |
| COC(=O)C(Cc1c[nH]c2ccccc12)NP(=O)(O)OCC1OC(n2cc(I)c(=O)[nH]c2=O)CC1O (configuration not stated) | > 100 | > 100 | > 100 | > 100 | > 100 | > 100 | > 100 | > 100 | > 100 | > 100 | > 100 |
| O=[N+]([O-])/C(C(Cl)=C(Cl)Cl)=C(/Cl)Sc1ccccc1 | 7.14 | 6.12 | 3.24 | 3.4 | 24.3 | 3.75 | 5.71 | 4.47 | 36 | 5.9 | 2.55 |
| C/C=C(/C)C(=O)O[C@@H]1CCN2CC[C@H](COC(=O)/C(=C/C)CO)C12 (some centres not stated) | > 93.4 | > 31.6 | 36.3 | > 100 | > 100 | > 100 | > 100 | > 62 | > 100 | > 100 | 99.7 |
| CN1CCN(C(=S)N2CCN(C)CC2)CC1 | > 100 | 5.86 | > 100 | > 100 | > 100 | > 100 | > 100 | > 100 | > 100 | > 100 | > 100 |
| O=C(O)CCC(NC(=O)OCc1ccccc1)C(=O)NC(Cc1cnc[nH]1)C(=O)O (stereo not drawn) (Cbz-Glu-His-OH; configuration not given here) | > 100 | > 100 | > 100 | > 100 | > 100 | > 100 | > 100 | > 100 | > 100 | > 100 | > 100 |
| Clc1ccc(C2C3COc4ccccc4C3=NN2c2ccccc2)cc1 (configuration not stated) | > 100 | > 100 | > 100 | > 100 | > 100 | > 100 | > 100 | > 100 | > 93.5 | > 100 | > 100 |
| COc1cc2c(C)cc(O)cc2c2cc(O)c(C)cc12 | 53.8 | 45.8 | 6.67 | 19.2 | 28.2 | 21.9 | 29.6 | 20.3 | 21.4 | 23.8 | 22.8 |
| Cc1ccnc2[nH]c3ccccc3c(=O)c12 | 48 | 36 | > 100 | > 100 | > 100 | > 100 | 45.5 | 33.2 | > 100 | 36.3 | > 100 |
| COC(=O)C1=C(O)C(C(=O)OC)[C@]2(O)[C@H](C(=O)OC)[C@H]1C[C@@H](c1ccc(C(F)(F)F)cc1)[C@H]2C(=O)OC (some centres not stated) | > 100 | 25.1 | 29.4 | > 100 | 7.36 | > 100 | > 100 | 10.9 | 68.9 | 22.5 | 23.5 |
| Nc1nc(N)c2c3c(cnc2n1)CC(c1ccccc1)CC3 (configuration not stated) | > 100 | 66.2 | > 100 | 96.8 | > 100 | 41.9 | 58.5 | > 100 | 46.8 | 97.9 | > 100 |
| CC(=O)c1[nH]c(NCc2ccccc2)c(C(=S)Nc2ccccc2)c1N | 58.9 | > 100 | 33.7 | 34.1 | 40.2 | 79.9 | 55.3 | 34.9 | > 100 | 63.8 | 49.2 |
| CSc1nc(Nc2cccc(C(F)(F)F)c2)c2c(N)nn(C)c2n1 | > 100 | > 100 | > 100 | > 100 | > 100 | > 100 | > 100 | > 100 | > 100 | > 100 | > 100 |
| O=C1CCCC1CN1CCCC1 (configuration not stated) | 55.7 | > 59.7 | 6.74 | 31.3 | > 100 | 4.32 | 48.5 | 31.9 | > 100 | 25.1 | 30.9 |
| CN(CC(=O)O)c1ncc2c(n1)CCCC2 | > 100 | > 100 | > 100 | > 100 | > 100 | > 100 | > 100 | > 100 | > 100 | > 100 | > 100 |
| Cc1[nH]nc(C(F)(F)F)c1N=NN1CCOCC1 | 40.5 | 16.8 | 32.8 | 27.1 | 30.4 | 15.1 | 26.8 | 12.8 | 30.4 | 26.7 | 24.4 |
